For 19 compounds, IC50 results are on record in US8017612B2, “Piperazine compound and use thereof as a HCV polymerase inhibitor” (priority 2006, dated 2011).

The structures appear in SMILES notation.

Assay [1] addresses T1, HCV polymerase (NS5B) type 1b (Hepatitis C virus genotype 1b, UniProt P26663).
T1 construct: a region encoding NS5B (J Virol 1991 March, 65(3), 1105-13, 544 amino acids after deletion of 47 amino acids on the C-terminal); 6xHis (C); made in house; host or cells: Escherichia coli
As to the kind of experiment: Assay of enzyme (HCV polymerase) inhibitory activity, type 1b enzyme. Format: biochemical, HCV BK strain (type 1b). The conditions noted are these: HCV polymerase inhibitory activity (IC50), 1b, type 1b enzyme 0.5 μg/ml, 25° C., 60 min. In a few lines: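 His-tagged, C-terminally truncated NS5B (BK strain, 1b; 0.5 μg/ml) incubated with compound 60 min at 25 °C on 3′UTR-derived substrate RNA (5 μg/ml), 50 μM ATP/GTP/CTP, 2 μM UTP plus [3H]UTP, pH 7.5. Acid-precipitated RNA counted; IC50 from radioactivity with and without compound.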

The target in assay [2] is T2, HCV polymerase (NS5B) type 1a (Hepatitis C virus genotype 1a, UniProt P26664).
T2 construct: made in house; host or cells: Escherichia coli (by the 'similar method' of the 1b enzyme)
Put plainly: Assay of enzyme (HCV polymerase) inhibitory activity, type 1a enzyme. Format: biochemical, HCV type 1a (cloned from the blood of patients). The conditions noted are these: HCV polymerase inhibitory activity (IC50), 1a, type 1a enzyme 1.5 μg/ml, 25° C., 60 min. The gist of the method: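 His-tagged NS5B, C-terminal 47 residues deleted, type 1a at 1.5 μg/ml, with 5 μg/ml HCV 3′UTR substrate RNA, 50 μM ATP/GTP/CTP, 2 μM UTP plus [3H]UTP, pH 7.5 Tris, 5 mM MgCl2; 60 min at 25° C. TCA-precipitated RNA counted by scintillation; IC50 from radioactivity with vs. without compound.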

On to `COc1ccc(S(=O)(=O)N2CCN(C(C)=O)C[C@@H]2C(=O)NCc2ccc(C(C)C)cc2)cc1-c1nn[nH]n1` [Example 288, (R)-4-acetyl-1-[4-methoxy-3-(2H-tetrazol-5-yl)-benzenesulfonyl]-piperazine-2-carboxylic acid 4-isopropyl-benzylamide], for which the IC50 in assay [1] and in assay [2] was 100 to 1000 nM in each case.
For `CC(=O)N1CCN(S(=O)(=O)c2ccc(CC(=O)O)s2)[C@@H](C(=O)NCc2ccc(C(C)C)cc2)C1` [Example 289, {5-[(R)-4-acetyl-2-(4-isopropyl-benzylcarbamoyl)-piperazine-1-sulfonyl]-thiophen-2-yl}-acetic acid], the 50% inhibitory concentration (IC50) in assay [1] and in assay [2] was over 1000 nM throughout.
With `CCOC(=O)C(=O)N1CCN(S(=O)(=O)c2ccc(C(F)(F)F)cc2)[C@@H](C(=O)NCc2ccc(C(C)C)cc2)C1` [Example 290, [(R)-3-(4-isopropyl-benzylcarbamoyl)-4-(4-trifluoromethyl-benzenesulfonyl)-piperazin-1-yl]-oxo-acetic acid ethyl ester], the concentration for half-maximal inhibition (IC50) (usually the point on the concentration scale where inhibition reaches its midpoint) in assay [1] was 100 to 1000 nM; in assay [2], over 1000 nM.
As to `CC(=O)N1CCN(S(=O)(=O)c2ccc(C(C)C)cc2)[C@@H](C(=O)NCc2ccc(C(C)C)cc2C)C1` [Example 291, (R)-4-acetyl-1-(4-isopropyl-benzenesulfonyl)-piperazine-2-carboxylic acid 4-isopropyl-2-methyl-benzylamide], the IC50 in assay [1] and in assay [2] was under 100 nM in each case.
Take `CC(=O)N1CCN(S(=O)(=O)c2ccc(C(C)C)cc2)[C@@H](C(=O)NCc2ccc(C(C)C)cc2F)C1` [Example 292, (R)-4-acetyl-1-(4-isopropyl-benzenesulfonyl)-piperazine-2-carboxylic acid 2-fluoro-4-isopropyl-benzylamide]: the results for the 50% inhibitory concentration (IC50) in assay [1] and in assay [2] were under 100 nM and 100 to 1000 nM, respectively.
For `CC(=O)N1CCN(S(=O)(=O)c2ccc(C(C)C)cc2)[C@@H](C(=O)NCc2ccc(C(C)(F)F)cc2)C1` [Example 293, (R)-4-acetyl-1-(4-isopropyl-benzenesulfonyl)-piperazine-2-carboxylic acid 4-(1,1-difluoro-ethyl)-benzylamide], in that order: 100 to 1000 nM and 100 to 1000 nM.
As for `CCCc1ccc(CNC(=O)[C@H]2CN(C(C)=O)CCN2S(=O)(=O)c2ccc(C(C)C)cc2)cc1` [Example 294, (R)-4-acetyl-1-(4-isopropyl-benzenesulfonyl)-piperazine-2-carboxylic acid 4-propyl-benzylamide], the 50% inhibitory concentration (IC50) in assay [1] and in assay [2] was under 100 nM in each case.
`CCCc1ccc(S(=O)(=O)N2CCN(C(=O)Nc3ccncc3)C[C@@H]2C(=O)NCc2ccc(C(C)C)cc2)cc1` [Example 295, (R)-4-(4-propyl-benzenesulfonyl)-piperazine-1,3-dicarboxylic acid 3-(4-isopropyl-benzylamide) 1-pyridin-4-ylamide]: the IC50 in assay [1] and in assay [2] was under 100 nM each time.
Turning to `CCCc1ccc(S(=O)(=O)N2CCN(c3nc(C(=O)OCC)cs3)C[C@@H]2C(=O)NCc2ccc(C(C)C)cc2)cc1` [Example 296, 2-[(R)-3-(4-isopropyl-benzylcarbamoyl)-4-(4-propyl-benzenesulfonyl)-piperazin-1-yl]-thiazole-4-carboxylic acid ethyl ester], the IC50 in assay [1] and in assay [2] was under 100 nM each time.
For the compound `CCCc1ccc(S(=O)(=O)N2CCN(c3nc(C)c(C(=O)OC)s3)C[C@@H]2C(=O)NCc2ccc(C(C)C)cc2)cc1` [Example 297, 2-[(R)-3-(4-isopropyl-benzylcarbamoyl)-4-(4-propyl-benzenesulfonyl)-piperazin-1-yl]-4-methyl-thiazole-5-carboxylic acid methyl ester], the IC50 in assay [1] and in assay [2] was under 100 nM throughout.
Regarding `CCCc1ccc(S(=O)(=O)N2CCN(c3nc(C(=O)O)cs3)C[C@@H]2C(=O)NCc2ccc(C(C)C)cc2)cc1` [Example 298, 2-[(R)-3-(4-isopropyl-benzylcarbamoyl)-4-(4-propyl-benzenesulfonyl)-piperazin-1-yl]-thiazole-4-carboxylic acid], the IC50 in assay [1] and in assay [2] was 100 to 1000 nM throughout.
For the compound `CCCc1ccc(S(=O)(=O)N2CCN(c3nc(C)c(C(=O)O)s3)C[C@@H]2C(=O)NCc2ccc(C(C)C)cc2)cc1` [Example 299, 2-[(R)-3-(4-isopropyl-benzylcarbamoyl)-4-(4-propyl-benzenesulfonyl)-piperazin-1-yl]-4-methyl-thiazole-5-carboxylic acid], the half-maximal inhibitory concentration (IC50) in assay [1] and in assay [2] was under 100 nM in each case.
For `CC(C)c1ccc(CNC(=O)[C@H]2CN(C(=O)Nc3ccncn3)CCN2S(=O)(=O)c2ccc(C(F)(F)F)cc2)cc1` [Example 300, (R)-4-(4-trifluoromethyl-benzenesulfonyl)-piperazine-1,3-dicarboxylic acid 3-(4-isopropyl-benzylamide) 1-pyrimidin-4-ylamide], the IC50 in assay [1] and in assay [2] was under 100 nM in each case.
For `CC(C)c1ccc(CNC(=O)[C@H]2CN(C(=O)Nc3ccnc(C(=O)OC(C)(C)C)c3)CCN2S(=O)(=O)c2ccc(C(F)(F)F)cc2)cc1` [Example 301, 4-{[(R)-3-(4-isopropyl-benzylcarbamoyl)-4-(4-trifluoromethyl-benzenesulfonyl)-piperazine-1-carbonyl]-amino}-pyridine-2-carboxylic acid tert-butyl ester], the IC50 in assay [1] and in assay [2] was under 100 nM in each case.
In the case of `COC(=O)c1cnc(N2CCN(S(=O)(=O)c3ccc(C(F)(F)F)cc3)[C@@H](C(=O)NCc3ccc(C(C)C)cc3)C2)s1` [Example 302, 2-[(R)-3-(4-isopropyl-benzylcarbamoyl)-4-(4-trifluoromethyl-benzenesulfonyl)-piperazin-1-yl]-thiazole-5-carboxylic acid methyl ester], the results for the IC50 in assay [1] and in assay [2] were under 100 nM and 100 to 1000 nM, respectively.
For `COC(=O)c1ccc(N2CCN(S(=O)(=O)c3ccc(C(F)(F)F)cc3)[C@@H](C(=O)NCc3ccc(C(C)C)cc3)C2)nc1` [Example 303, 6-[(R)-3-(4-isopropyl-benzylcarbamoyl)-4-(4-trifluoromethyl-benzenesulfonyl)-piperazin-1-yl]-nicotinic acid methyl ester], in that order: under 100 nM and under 100 nM.
On the same counts, the results for `CC(C)c1ccc(CNC(=O)[C@H]2CN(CCc3ccncc3)CCN2S(=O)(=O)c2ccc(C(F)(F)F)cc2)cc1` [Example 304, (R)-4-(2-pyridin-4-yl-ethyl)-1-(4-trifluoromethyl-benzenesulfonyl)-piperazine-2-carboxylic acid 4-isopropyl-benzylamide] are 100 to 1000 nM and 100 to 1000 nM.
For `CC(=O)N1CCN(S(=O)(=O)c2ccc(OC(F)(F)F)c(C(=O)O)c2)[C@@H](C(=O)NCc2ccc(C(C)C)cc2)C1` [Example 305, 5-[(R)-4-acetyl-2-(4-isopropyl-benzylcarbamoyl)-piperazine-1-sulfonyl]-2-trifluoromethoxy-benzoic acid], the concentration for half-maximal inhibition (IC50) in assay [1] is under 100 nM; in assay [2] it was 100 to 1000 nM.
As for `CC(=O)N1CCN(S(=O)(=O)c2ccc3c(c2)OC(F)(F)C(F)(F)O3)[C@@H](C(=O)NCc2ccc(C(C)C)cc2)C1` [Example 306, (R)-4-acetyl-1-(2,2,3,3-tetrafluoro-2,3-dihydro-benzo[1,4]dioxine-6-sulfonyl)-piperazine-2-carboxylic acid 4-isopropyl-benzylamide], the IC50 in assay [1] and in assay [2] was 100 to 1000 nM throughout.
